Source: patent US8173654B2, “Triazolopyridazine compounds” (Janssen Pharmaceutica N.V., priority 2005, dated 2012)

How the values were obtained:
HepG2 cells = assay: HepG2 cellular scatter assay (HGF-induced, RT-CES impedance); assay type: cell-based; conditions: Homo sapiens, 40 ng/ml HGF
From the text: Human Growth Factor (HGF) and its receptor (c-Met) are involved in cellular motility. Indeed HGF was also identified as Scatter Factor (SF), based on its powerful motility effect on certain cell types. Cellular motility is critical for pathological processes of oncologic disease, most importantly, the establishment of metastatic lesions distant from the primary tumor and formation of new blood vessels (angiogenesis). One therapeutic hypothesis is that this movement of cell types may be blunted or eliminated by the use of c-Met kinase inhibitors. (See: Jiang, W. C, Martin, T. A., Parr, C., Davies, G., Matsumoto, K. and Nakamura, T. Critical Reviews in Oncology/Hematology 53 (2005) 35-69. and references cited therein.) It should also be noted that cellular motility, especially with regard to angiogenesis, is important in other disease states.
Cellular scatter was measured with a Real-Time Cell Electronic Sensing system (RT-CES), from ACEA Biosciences Inc. (San Diego, Calif.). The RT-CES system uses specialized RT-ACE microtiter plates (cat:RCD96, ACEA Biosciences Inc.) to non-invasively quantify cellular status in real-time. The interaction of cells with the surface of the plates, which are integrated with microelectronic sensor arrays, leads to the generation of a cell-electrode impedance response. A higher impedance value indicates more cell attachment and thus less cellular scatter.
50 μl of Assay Media (MEM supplemented with 10% FBS, 2 mM L-glutamine, 1.5 g/L sodium bicarbonate, 1 mM sodium pyruvate, and 0.1 mM non-essential amino acids) was added into 96-well RT-ACE plates and recorded for 30 min on the RT-CES. 50 μl of HepG2 cells (cat: HB-8065, ATCC) were added into each well ([…]). The plate was read in RT-CES and incubated for 20-24 hours. After the 20-24 hours incubation, 50 μl of Assay Media containing different concentrations of testing compounds was added into each well and incubated for 1 hour. Finally, 50 μl of Assay Media containing 160 ng/ml of HGF was added into each well (40 ng/ml in 200 μl). The plate was incubated and read in the RT-CES for 20-24 hours, with a record time every 15 minutes. The positive control was HGF without compounds and negative control was no-HGF without compound. All determinations were performed in duplicate wells and IC50 values were calculated using GraphPad Prism software (GraphPad Software; San Diego, Calif.).

S114 tumors = assay: S114 tumor model; assay type: in vivo, athymic nude mice; conditions: 100 mg/kg p.o. q.d., four consecutive days, five mice
Method: Female athymic nude mice were inoculated subcutaneously in the left inguinal region of the thigh with 5×10^6 S114 cells in a delivery volume of 0.1 mL. Tumors were allowed to grow to for five days. Mice were dosed orally at 100 mg/kg compound in 20% HPBCD or with vehicle (20% HPBCD, control group). Dosing was continued for 4 consecutive days. On the day of study termination, tumors were immediately excised intact and weighed, with final tumor wet weight (grams) serving as a primary efficacy endpoint.
Female athymic nude mice (CD-1, nu/nu, 9-10 weeks old) were obtained from Charles River Laboratories (Wilmington, Mass.) and were maintained according to NIH standards. All mice were group housed (5 mice/cage) under clean-room conditions in sterile micro-isolator cages on a 12-hour light/dark cycle in a room maintained at 21-22° C. and 40-50% humidity. […]
The murine NIH 3T3 derived cell line S114, which has been engineered to over-express both Human Growth Factor (HGF) and the human c-Met receptor, was propagated in DMEM media (Life Technologies, Bethesda, Md.). Immediately prior to injection, cells were washed counted and resuspended in PBS. […]
Mice were dosed orally at 100 mg/kg compound in 20% HPBCD or with vehicle (20% HPBCD, control group). […] Body weight was measured at the end of the study and a loss of body weight >10% was used as an indication of lack of compound tolerability. […]

Cn1cc(-c2ccc3nnc(C(F)(F)c4ccc5ncccc5c4)n3n2)cn1 [Example 61, 6-{Difluoro-[6-(1-methyl-1H-pyrazol-4-yl)-[1,2,4]triazolo[4,3-b]pyridazin-3-yl]-methyl}-quinoline]
IC50 (HepG2 cells): 106 nM
mice with tumors regressed to non-palpable, non-detectable tumors by the end of the study (S114 tumors): three of the five mice
regression of S114 tumors (S114 tumors): regressed in all five mice
